In publication doi:10.1101/2024.12.13.628427v1 (biorxiv, 2024) one finds IC50 data, which are given here for 1 compound.

Molecules are shown by their SMILES.

This experiment has as its target T1, FBXO21 (Homo sapiens, UniProt O94952).
T1 sequence (O94952 1-628): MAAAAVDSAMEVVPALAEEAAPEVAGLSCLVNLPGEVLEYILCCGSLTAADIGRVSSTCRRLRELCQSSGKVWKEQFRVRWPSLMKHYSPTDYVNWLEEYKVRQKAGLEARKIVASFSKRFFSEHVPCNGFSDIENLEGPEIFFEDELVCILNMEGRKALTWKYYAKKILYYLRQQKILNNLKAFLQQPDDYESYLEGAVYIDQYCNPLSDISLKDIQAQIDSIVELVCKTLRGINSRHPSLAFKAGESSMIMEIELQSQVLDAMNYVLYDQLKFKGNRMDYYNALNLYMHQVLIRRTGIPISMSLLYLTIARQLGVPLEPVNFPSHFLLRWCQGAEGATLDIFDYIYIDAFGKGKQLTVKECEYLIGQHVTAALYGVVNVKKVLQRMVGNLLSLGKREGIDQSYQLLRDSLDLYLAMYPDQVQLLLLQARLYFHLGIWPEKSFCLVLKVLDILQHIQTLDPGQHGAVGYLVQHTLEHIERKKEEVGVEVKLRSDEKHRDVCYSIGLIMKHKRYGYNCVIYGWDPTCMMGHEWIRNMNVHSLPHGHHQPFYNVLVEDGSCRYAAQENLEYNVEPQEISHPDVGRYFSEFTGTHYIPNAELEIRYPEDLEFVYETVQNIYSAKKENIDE
Briefly: in vitro ubiquitination of GFP-p85α, Western blot. Type of experiment: biochemical.

Consider `O=C(O)Cc1cc(-c2ccc(F)cc2)ccc1-c1ccc(F)cc1` [57-057], for which the IC50 (usually the concentration that inhibits the measured activity by half) amounted to 2.4 nM.
